This note sets out measurements from patent US9475789B2, “Use of polyenylpyrrole derivatives for treating inflammation” (WELLHEAD BIOLOGICAL TECHNOLOGY CORP., priority 2014, dated 2016).

“Also recorded” adds a separate entry of the source. A value given as a limit tells only on which side of the number the result lay.

Holding throughout (type): cell-based, murine
Experiment [1] relates to LPS-induced NO generation in RAW 264.7 macrophages. The experiment can be described thus: NO inhibitory assay (Griess reaction) in LPS-activated macrophages. Conditions: for EC50: Mus musculus, RAW264.7, 50% inhibition of the LPS-induced NO generation, RAW 264.7, LPS 1 μg/ml, 24 h, read-out: ED50 (the source's name); for production of NO by LPS-activated cells: RAW 264.7, LPS 1 μg/ml 24 h, Griess reaction; for background level of NO: compound alone, no LPS, RAW 264.7, data not shown. As to the method:
In (A) and (C), cells (5×10^5/ml) were incubated with polyenylpyrrole derivatives or DMSO (vehicle) for 30 min followed by stimulating with LPS (1 μg/ml) for 24 h, then NO (A), IL-6 and TNF-α (C) concentration in culture medium were assayed by Griess reaction and ELISA, respectively. In (B), cells (5×10^5/ml) were pretreated with polyenylpyrrole derivatives or DMSO for 30 min followed by stimulating with LPS (1 μg/ml) for 24 h, then the protein expression of iNOS and COX-2 were assayed by Western blot. […] RAW 264.7 cells were seeded in 24-well plates at a density of 5×10^5 cells/ml, and then incubated with or without LPS (1 μg/ml) in the absence or presence of tested samples for 24 h. The effects of the tested samples on NO production were measured indirectly by analysis of nitrite levels using the Griess reaction.

For experiment [2], the system named is RAW 264.7 cells. Put plainly: AlamarBlue assay for cell viability. Particulars: Mus musculus, RAW264.7, cytotoxicity against RAW 264.7 cells, 24 h treatment. As to the method: RAW 264.7 cells were seeded at a density of 5000 cells in 100 μl RPMI 1640 medium with 10% heat-inactivated FBS per well in 96-well flat-bottom plates and incubated for 24 h at 37° C. in a 5% CO2 incubator. Cells were incubated with tested samples for 24 h and the AlamarBlue® assay was used to determine the cytotoxicity of the test samples. The procedure was conducted following the protocol described in the manufacture's instruction (AbD Serotec Ltd).
The aim of this study is to identify non-toxic polyenylpyrrole derivatives which can be used as anti-inflammatory agents. Compounds 1a-n were evaluated for their cytotoxicities against the murine macrophages cell line RAW 264.7 after 24 h treatment.

In experiment [3] the test system is IL-6. The experiment can be described thus: IL-6 ELISA, RAW 264.7 macrophages. Particulars: for secretion of IL-6: LPS-activated RAW 264.7, LPS 1 μg/ml 24 h; for background level of IL-6: compound alone, no LPS, data not shown. As to the method:
(§1) The effects of tested samples on IL-1β, TNF-α and IL-6 production were measured by ELISA according to the manufacturer's instruction. In brief, 50 μl of biotinylated antibody reagent and 50 μl of supernatant were added to an anti-mouse IL-1β, TNF-α and IL-6 precoated stripwell plate, and incubated at room temperature for 2 h. After washing the plate three times with washing buffer, 100 μl of diluted streptavidin-HRP concentrate was added to each well and incubated at room temperature for 30 min. The washing process was repeated; then 100 μl of a premixed tetramethylbenzidine substrate solution was added to each well and developed at room temperature in the dark for 30 min. Following the addition of 100 μl of stop solution to each well to stop the reaction, the absorbance of the plate was measured by a microplate reader at 450 nm wavelength.

Experiment [4] has as its system COX-2. Put plainly: Western blot of COX-2 protein in LPS-activated RAW 264.7 macrophages. As to the method:
(§2) In (A) and (C), cells (5×10^5/ml) were incubated with polyenylpyrrole derivatives or DMSO (vehicle) for 30 min followed by stimulating with LPS (1 μg/ml) for 24 h, then NO (A), IL-6 and TNF-α (C) concentration in culture medium were assayed by Griess reaction and ELISA, respectively. In (B), cells (5×10^5/ml) were pretreated with polyenylpyrrole derivatives or DMSO for 30 min followed by stimulating with LPS (1 μg/ml) for 24 h, then the protein expression of iNOS and COX-2 were assayed by Western blot.
(§3) Whole cell lysates were separated by SDS-PAGE and electrotransferred to a PVDF membrane. The membranes were incubated in blocking solution—5% nonfat milk in phosphate buffered saline with 0.1% Tween 20—at room temperature for 1 h. Each membrane was incubated with a specific primary antibody at room temperature for 2 h. After washing three times in PBS with 0.1% Tween 20, the membrane was incubated with an HRP-conjugated secondary antibody directed against the primary antibody. The membrane was developed by an enhanced chemiluminescence Western blot detection system.

Experiment [5] relates to TNF-α. Put plainly: TNF-α ELISA, RAW 264.7 macrophages. Particulars: for TNF-α secretion: LPS-activated RAW 264.7, LPS 1 μg/ml 24 h; for background level of TNF-α: compound alone, no LPS, data not shown. As to the method:
as §2, §1

The test system of experiment [6] is iNOS. The experiment can be described thus: Western blot of iNOS protein in LPS-activated RAW 264.7 macrophages. Particulars: LPS-activated RAW 264.7, compared with vehicle. As to the method:
as §2, §3

The subject of experiment [7] is ROS. The experiment can be described thus: Intracellular ROS production, LPS-activated RAW 264.7 macrophages. Conditions: compound 1h 20 μM, NAC 10 mM, 30 min before LPS. As to the method:
In (A), RAW 264.7 macrophages (5×10^5/ml) were incubated with compound 1h (20 μM), N-acetyl cysteine (NAC; 10 mM) or DMSO (vehicle) for 30 min followed by LPS (1 μg/ml) stimulating for the indicated time, then ROS levels were measured by detection of the fluorescence intensity of the fluorophore carboxyl-DCF and expressed relative to those at time zero. In (B), RAW 264.7 macrophages (5×10^5/ml) were incubated with compound 1h (20 μM) or DMSO for 30 min followed by LPS (1 μg/ml) stimulating for 0-60 min, then the phosphorylation levels of ERK1/2, JNK1/2, p38 were analyzed by Western blot. In (C), J774A.1 macrophages (5×10^5/ml) were incubated with compound 1h or DMSO for 30 min followed by LPS (1 μg/ml) stimulating for 20 min, then the phosphorylation levels of ERK1/2, JNK1/2, p38 were analyzed by Western blot.
Intracellular ROS stimulated by LPS was measured by detecting the fluorescence intensity of the 2′,7′-dichlorofluorescein diacetate (H2DCFDA) oxidized product (DCF) (Molecular Probes, Eugene, Oreg.). […] The relative fluorescence intensity of fluorophore DCF, formed by peroxide oxidation of the non-fluorescent precursor, was detected at an excitation wavelength of 485 nm and an emission wavelength of 530 nm with a microplate absorbance reader (Bio-Rad Laboratories, Inc).

Consider `COc1cc(/C=C/C=C/C=C/C=C/c2c(Cl)ccn2S(C)(=O)=O)oc(=O)c1C` [Compound 1n], for which, in experiment [1], the EC50 came out at 17 ± 2 µM, the “production of NO by LPS-activated cells” value is “decreased production; also recorded: decreased the production of NO by LPS-activated cells in a dose-dependent manner” and the “background level of NO” value is listed as “did not alter”. Moreover, the IC50 in experiment [2] is above 100 µM. Further, in experiment [3], the “secretion of IL-6” value is “decreased production; also recorded: decreased the secretion of IL-6 by LPS-activated RAW 264.7 macrophages in a dose-dependent manner” and the “background level of IL-6” value was “did not alter”. Moreover, the COX-2 expression entry in experiment [4] is given as “did not affect”. Also, in experiment [5], the TNF-α secretion entry was “slight reduced by compounds 1h, 1i and 1n, but not significantly”; the “background level of TNF-α” value is given as “did not alter”. For the same molecule, in experiment [6], the “expression of iNOS protein” value is “decreased production; also recorded: reduced the expression of iNOS protein”.
As to `COc1cc(/C=C/C=C/C=C/C=C/c2sccc2Cl)oc(=O)c1C` [Compound 1k], the EC50 in experiment [1] was 18 ± 2 µM. The IC50 in experiment [2] was above 100 µM.
Taken in the same sequence, the figures for `COc1cc(/C=C/C=C/C=C/C=C/c2ccccc2Cl)oc(=O)c1C` [Compound 1l] were 18 ± 3 µM and above 100 µM.
The like results for `COc1cc(/C=C/C=C/C=C/C=C/c2cccc(Cl)c2)oc(=O)c1C` [Compound 1m] were, in that order, 26 ± 3 µM and above 100 µM.
For the molecule `COc1cc(/C=C/C=C/C=C/C=C/c2sccc2Cl)oc(=O)c1` [Compound 1j], in experiment [1], the EC50 came to 29 ± 6 µM. The molecule further came in with an IC50 in experiment [2] above 100 µM.
On to `CC(=O)N[C@@H](CS)C(=O)O` [N-acetyl cysteine, reference compound], for which the “LPS-stimulated ROS production” value in experiment [7] is recorded as “reduced ROS production”.
For the molecule `Cc1c(O)cc(/C=C/C=C/C=C/C=C/c2[nH]ccc2Cl)oc1=O` [Compound 1i], in experiment [1], the EC50 came out at 16 ± 2 µM, the “production of NO by LPS-activated cells” value was “decreased production; also recorded: decreased the production of NO by LPS-activated cells in a dose-dependent manner” and the “background level of NO” value is “did not alter”. The IC50 in experiment [2] is above 100 µM. Moreover, in experiment [3], the “secretion of IL-6” value is recorded as “decreased production; also recorded: decreased the secretion of IL-6 by LPS-activated RAW 264.7 macrophages in a dose-dependent manner” and the “background level of IL-6” value is listed as “did not alter”. In experiment [4], the COX-2 expression result is reported as “did not affect”. Besides, in experiment [5], the TNF-α secretion entry is “slight reduced by compounds 1h, 1i and 1n, but not significantly”; the “background level of TNF-α” value is on record as “did not alter”. Also, the “expression of iNOS protein” value in experiment [6] was “decreased production; also recorded: reduced the expression of iNOS protein”.
